Test results taken from ChEMBL document CHEMBL1201862, “PubChem BioAssay data set” (2004).
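How tested: cells in 96-well plates exposed to compound for 48 hours at five concentrations. GI50 = concentration required for 50% inhibition of growth.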 Calls of active or inactive are those of the source. No stated cut-off is given here; in the data, active = GI50 up to about 1.1 µM and inactive = higher.

Experiments:
Assay in all cases: NCI tumour cell line growth inhibition, 48 h
OVCAR-8 = system: OVCAR-8
IGROV-1 = system: IGROV-1
SR = system: SR
EKVX = system: EKVX
RXF 393 = system: RXF 393
786-0 = system: 786-0
HT-29 = system: HT-29
TK-10 = system: TK-10
HOP-62 = system: HOP-62
SF-539 = system: SF-539
SN12C = system: SN12C
NCI-H23 = system: NCI-H23
MOLT-4 = system: MOLT-4
M14 = system: M14
SK-MEL-5 = system: SK-MEL-5
UACC-62 = system: UACC-62
A549 = system: A549
U-251 = system: U-251
SF-295 = system: SF-295

Measured: GI50

CCCC(=O)N[C@@H](Cc1cc(I)c(O)c(I)c1)C(=O)NCCCNCCCCNCCCNC(=O)[C@@H](N)CCCN=C(N)N
inactive: OVCAR-8 > 100 µM | IGROV-1 29 µM | SR > 100 µM | EKVX > 100 µM | RXF 393 > 100 µM | 786-0 73.3 µM | HT-29 > 100 µM | TK-10 > 100 µM | HOP-62 33.8 µM | SF-539 10.4 µM | SN12C > 100 µM | NCI-H23 31.4 µM | MOLT-4 71.6 µM | M14 25.7 µM | SK-MEL-5 36.6 µM | UACC-62 44.9 µM | A549 > 100 µM | U-251 > 100 µM | SF-295 > 10 µM

CC(=O)CC(=O)ON(C)C(C)=O
inactive: OVCAR-8 > 100 µM | IGROV-1 > 100 µM | SR > 100 µM | RXF 393 > 100 µM | 786-0 > 100 µM | HT-29 > 100 µM | TK-10 > 100 µM | HOP-62 > 100 µM | SF-539 > 100 µM | SN12C > 100 µM | NCI-H23 43.4 µM | MOLT-4 > 100 µM | M14 > 100 µM | SK-MEL-5 > 100 µM | UACC-62 > 100 µM | A549 > 100 µM | U-251 > 100 µM | SF-295 > 100 µM

CN(C)CC/[N+]([O-])=C(/c1ccccc1)C12CC3CC(CC(C3)C1)C2
inactive: OVCAR-8 17.9 µM | IGROV-1 18.5 µM | SR 16.2 µM | EKVX 21 µM | RXF 393 18.2 µM | 786-0 13.5 µM | HT-29 11 µM | TK-10 16.7 µM | HOP-62 14.8 µM | SF-539 16.5 µM | SN12C 17.2 µM | NCI-H23 20.1 µM | MOLT-4 16.7 µM | M14 13.4 µM | SK-MEL-5 17.5 µM | UACC-62 14 µM | A549 18.4 µM | U-251 16 µM | SF-295 14 µM

O=C1/C(=C/c2ccccc2)CN(C(=O)OCC(Cl)(Cl)Cl)C/C1=C\c1ccccc1
inactive: OVCAR-8 1.76 µM | IGROV-1 3.54 µM | SR 2.07 µM | EKVX > 10 µM | RXF 393 1.68 µM | 786-0 2.14 µM | HT-29 1.6 µM | TK-10 4.46 µM | SF-539 4.29 µM | SN12C 1.84 µM | NCI-H23 2.25 µM | MOLT-4 2.51 µM | M14 2.14 µM | SK-MEL-5 1.55 µM | UACC-62 2.71 µM | A549 5.02 µM | U-251 1.68 µM | SF-295 1.83 µM

CC(CC(=O)Nc1ccc(NC(=O)CC(C)/N=N\C(N)=O)cc1)/N=N\C(N)=O (centres undefined)
inactive: OVCAR-8 > 100 µM | IGROV-1 > 100 µM | SR 22.8 µM | EKVX > 100 µM | RXF 393 > 100 µM | 786-0 > 100 µM | HT-29 > 100 µM | TK-10 > 100 µM | HOP-62 > 100 µM | SF-539 > 100 µM | SN12C > 100 µM | NCI-H23 > 100 µM | MOLT-4 > 100 µM | M14 > 100 µM | SK-MEL-5 > 100 µM | UACC-62 > 100 µM | A549 > 100 µM | U-251 > 100 µM | SF-295 > 100 µM

C/C(=N\NS(=O)(=O)c1ccccc1)c1ccc(Cl)c(Cl)c1
inactive: OVCAR-8 40.6 µM | IGROV-1 72.9 µM | SR 62.2 µM | EKVX 67.3 µM | RXF 393 55.3 µM | 786-0 82.2 µM | HT-29 44.7 µM | TK-10 50.1 µM | HOP-62 61.5 µM | SF-539 43 µM | SN12C 45.4 µM | NCI-H23 75.3 µM | MOLT-4 47.8 µM | M14 45.3 µM | SK-MEL-5 42.5 µM | UACC-62 95.5 µM | A549 46.2 µM | U-251 37.2 µM | SF-295 46.3 µM

Nc1ncnc2c1N=CN(Oc1ccccc1)N2
inactive: OVCAR-8 > 100 µM | IGROV-1 > 100 µM | SR > 100 µM | EKVX > 100 µM | RXF 393 > 100 µM | 786-0 > 100 µM | HT-29 > 100 µM | TK-10 > 100 µM | SF-539 > 100 µM | SN12C 21.5 µM | NCI-H23 > 100 µM | MOLT-4 > 100 µM | M14 > 100 µM | SK-MEL-5 > 100 µM | UACC-62 > 100 µM | A549 > 100 µM | U-251 > 100 µM | SF-295 > 100 µM

CCOC(=O)c1cn2c([nH]c3ccccc32)c(C#N)c1=O
inactive: OVCAR-8 > 100 µM | IGROV-1 > 100 µM | SR > 100 µM | EKVX > 100 µM | RXF 393 > 100 µM | 786-0 > 100 µM | HT-29 > 100 µM | TK-10 > 100 µM | HOP-62 > 100 µM | SF-539 > 100 µM | SN12C > 100 µM | NCI-H23 > 100 µM | MOLT-4 > 100 µM | M14 > 100 µM | SK-MEL-5 > 100 µM | UACC-62 > 100 µM | A549 > 100 µM | U-251 > 100 µM | SF-295 > 100 µM
